What was measured:
[1] = Ten-hour half-life temperature (0.1 M in benzene); type: physicochemical
From the text: Table I provides the ten-hour half-life of the compounds of the instant invention synthesized in Examples 1-3.
Peroxide (0.1 M in benzene)

[2] = Storage stability at 40 °C; type: physicochemical; design: A.O.: unit not given here
Protocol: APCD from Example 1 is selected as representative and was tested over a period of 89 days at 40° C. Representative peroxy carbonate and dicarbonates of the prior art are also included for comparison.
Storage Stability at 40° C.

[3] = Vinyl chloride suspension polymerization (% conversion)
Protocol: As mentioned, the instant bis-carbonates are useful for the initiation of monomers having polymerizable ethylenic or vinyl unsaturation, such as ethylene, styrene, methyl methacrylate and vinyl chloride and copolymers thereof. The data was generated with suspension polymerization performed in 12 ounce pop bottles using uninhibited monomer. Duplicate bottles were analyzed at each time interval for which data is listed. Bottles were frozen before venting off of excess monomer. Mixing speed of the pop bottles was 42 rpm. The water to vinyl chloride monomer ratio was 2.50. Each pop bottle contained 0.35 gms Dow Methocel 90 HG, 100 cps suspension agent per 100 gms vinyl chloride monomer.

[4] = Hot Block Gel Tests With Polyester Resin; details: block 180 °F, 1% wt peroxide (100% purity basis)
From the text: As mentioned above, the new molecules can be used for curing of polyester resins and this utility is illustrated in Tables V and VI below. Typical prior art peroxy dicarbonates and carbonates of the prior art are included for comparison.
Hot Block Gel Tests With Polyester Resin
Resin: MR 941 (U.S.S. Chemical - orthophthalic)
Concentrations of peroxide adjusted to 100% purity basis, 1% wt

[5] = disclosed in prior art U.S. patents; cited from earlier work
[6] = 55 °C, 5.5 Hrs., 2.01 × 10^-4 moles/100g VCM (APCD 0.070, LPCD 0.126, BPCD 0.095 % wt)
[7] = 55 °C, 5.5 Hrs., 2.30 × 10^-4 moles/100g VCM (APCD 0.080, LPCD 0.145, BPCD 0.109 % wt)
[8] = 60 °C, 5.0 Hrs., 1.15 × 10^-4 moles/100g VCM (APCD 0.040, LPCD 0.072, BPCD 0.054 % wt)
[9] = 60 °C, 5.0 Hrs., 1.45 × 10^-4 moles/100g VCM (APCD 0.051, LPCD 0.091 % wt)

SMILES: CC(=O)OOC(=O)OCC1CCC(COC(=O)OOC(C)=O)CC1 (stereo not drawn) [APCD, di(acetylperoxy)-1,4-cyclohexane dimethanol bis-carbonate]
- Ten-Hour Half-Life Temperature [1]: 55.2 °C
- % Purity ([2]; 0 days elapsed): 99.6%
- A.O. ([2]; 0 days elapsed): 9.15
- % Purity ([2]; 7 days elapsed): 99.5%
- A.O. ([2]; 7 days elapsed): 9.14
- % Purity ([2]; 14 days elapsed): 98.3%
- A.O. ([2]; 14 days elapsed): 9.03
- % Purity ([2]; 28 days elapsed): 97.7%
- A.O. ([2]; 28 days elapsed): 8.98
- % Purity ([2]; 59 days elapsed): 95.4%
- A.O. ([2]; 59 days elapsed): 8.77
- % Purity ([2]; 89 days elapsed): 93.4%
- A.O. ([2]; 89 days elapsed): 8.58
- % Conversion ([3]; 55 °C, 1.5 Hrs., 2.23 × 10^-4 moles/100g VCM (APCD 0.0775 % wt)): 13.6%
- % Conversion ([3]; 55 °C, 3.5 Hrs., 2.23 × 10^-4 moles/100g VCM (APCD 0.0775 % wt)): 42.0%
- % Conversion ([3]; 55 °C, 5.5 Hrs., 0.85 × 10^-4 moles/100g VCM (APCD 0.030 % wt)): 35.7%
- % Conversion ([3]; 55 °C, 5.5 Hrs., 1.15 × 10^-4 moles/100g VCM (APCD 0.040 % wt)): 45.6%
- % Conversion ([3]; 55 °C, 5.5 Hrs., 1.45 × 10^-4 moles/100g VCM (APCD 0.051 % wt)): 55.7%
- % Conversion ([3]; 55 °C, 5.5 Hrs., 1.72 × 10^-4 moles/100g VCM (APCD 0.060, BPCD 0.081 % wt)): 60.5%
- % Conversion [3, 6]: 71.5%
- % Conversion ([3]; 55 °C, 5.5 Hrs., 2.23 × 10^-4 moles/100g VCM (APCD 0.0775 % wt)): 80.3%
- % Conversion [3, 7]: 83.0%
- % Conversion ([3]; 60 °C, 1.5 Hrs., 1.36 × 10^-4 moles/100g VCM (APCD 0.0475 % wt)): 15.1%
- % Conversion ([3]; 60 °C, 3.5 Hrs., 1.36 × 10^-4 moles/100g VCM (APCD 0.0475 % wt)): 46.9%
- % Conversion ([3]; 60 °C, 5.0 Hrs., 0.85 × 10^-4 moles/100g VCM (APCD 0.030, BPCD 0.040 % wt)): 48.5%
- % Conversion [3, 8]: 65.9%
- % Conversion ([3]; 60 °C, 5.0 Hrs., 1.36 × 10^-4 moles/100g VCM (APCD 0.0475 % wt)): 83.1%
- % Conversion [3, 9]: 86.6%
- Exotherm Time ([4]; Table V): 4.05 min
- Gel Time ([4]; Table V): 3.38 min
- Exotherm Time ([4]; Table VI): 4.20 min
- Gel Time ([4]; Table VI): 3.58 min

SMILES: CC(C)(C)C1CCC(OC(=O)OOC(=O)OC2CCC(C(C)(C)C)CC2)CC1 (stereo not drawn) [Di(4-t-butylcyclohexyl) peroxydicarbonate]
- Ten-Hour Half-Life Temperature [1]: 43.0 °C
- % Purity ([2]; 0 days elapsed): 97.8%
- A.O. ([2]; 0 days elapsed): 3.92
- % Purity ([2]; 7 days elapsed): 96.4%
- A.O. ([2]; 7 days elapsed): 3.86
- % Purity ([2]; 14 days elapsed): 96.4%
- A.O. ([2]; 14 days elapsed): 3.86
- % Purity ([2]; 28 days elapsed): 95.2%
- A.O. ([2]; 28 days elapsed): 3.82
- % Purity ([2]; 59 days elapsed): 93.0%
- A.O. ([2]; 59 days elapsed): 3.73
- % Purity ([2]; 89 days elapsed): 93.2%
- A.O. ([2]; 89 days elapsed): 3.74
- Exotherm Time ([4]; Table V): 3.39 min
- Gel Time ([4]; Table V): 2.46 min
- Exotherm Time ([4]; Table VI): 3.58 min
- Gel Time ([4]; Table VI): 2.74 min

SMILES: CCCCCCCCCCCC(=O)OOC(=O)OCC1CCC(COC(=O)OOC(=O)CCCCCCCCCCC)CC1 (stereo not drawn) [LPCD, di(lauroylperoxy)-1,4-cyclohexane dimethanol bis-carbonate]
- Ten-Hour Half-Life Temperature [1]: 51.4 °C
- % Conversion [3, 6]: 60.9%
- % Conversion [3, 7]: 72.0%
- % Conversion [3, 8]: 51.4%
- % Conversion [3, 9]: 65.4%
- Exotherm Time ([4]; Table VI): 4.96 min
- Gel Time ([4]; Table VI): 4.05 min

SMILES: CCCCCCCCCCCCCCCCCCOC(=O)OOC(C)=O [acetyl peroxystearyl carbonate]
- % Purity ([2]; 0 days elapsed): 94.1%
- A.O. ([2]; 0 days elapsed): 4.04
- % Purity ([2]; 7 days elapsed): 93.5%
- A.O. ([2]; 7 days elapsed): 4.01
- % Purity ([2]; 14 days elapsed): 93.1%
- A.O. ([2]; 14 days elapsed): 4.00
- % Purity ([2]; 28 days elapsed): 91.5%
- A.O. ([2]; 28 days elapsed): 3.92
- % Purity ([2]; 59 days elapsed): 87.9%
- A.O. ([2]; 59 days elapsed): 3.77
- % Purity ([2]; 89 days elapsed): 78.8%
- A.O. ([2]; 89 days elapsed): 3.38
- Exotherm Time ([4]; Table V): 4.05 min
- Gel Time ([4]; Table V): 3.13 min

SMILES: CC(C)(COC(=O)OOC(=O)OCC(C)(C)c1ccccc1)c1ccccc1 [di(2-methyl-2-phenylpropyl) peroxy dicarbonate]
- stability at room/ambient temperature [5]: ambient temperature stability

SMILES: O=C(OCCOc1ccccc1)OOC(=O)OCCOc1ccccc1 [di(phenoxyethyl) peroxydicarbonate]
- Ten-Hour Half-Life Temperature [1]: 42.2 °C
- % Purity ([2]; 0 days elapsed): 97.4%
- A.O. ([2]; 0 days elapsed): 4.31
- % Purity ([2]; 7 days elapsed): 94.4%
- A.O. ([2]; 7 days elapsed): 4.17
- % Purity ([2]; 14 days elapsed): 93.3%
- A.O. ([2]; 14 days elapsed): 4.12
- % Purity ([2]; 28 days elapsed): 91.1%
- A.O. ([2]; 28 days elapsed): 4.03
- % Purity ([2]; 59 days elapsed): 84.7%
- A.O. ([2]; 59 days elapsed): 3.74
- % Purity ([2]; 89 days elapsed): 73.1%
- A.O. ([2]; 89 days elapsed): 3.23
- Exotherm Time ([4]; Table V): 5.62 min
- Gel Time ([4]; Table V): 5.45 min

SMILES: O=C(OOC(=O)OC1CCCCCCCCCCC1)OC1CCCCCCCCCCC1 [dicyclododecyl peroxy dicarbonate]
- stability at room/ambient temperature [5]: stability that permits storage at room temperature

Source: patent US4372877A, “Di(acylperoxy)-1,4-cyclohexane dimethanol-bis-carbonates” (priority 1981, dated 1983)
